Reference: the Deep4Chem optical property database

Experiment: solvent given as SMILES

CCOC(=O)CN1C(=O)C2=C(c3ccc(C#N)cc3)N(CC(=O)OCC)C(=O)C2=C1c1ccc(C#N)cc1
absorption maximum (in CC#N): 473 nm | absorption maximum (in CS(C)=O): 480 nm | absorption maximum (in Cc1ccccc1): 482 nm

CC1(C)CC(/N=C/c2ccc3ccc4cccc5ccc2c3c45)CC(C)(C)N1[O]
absorption maximum (in C1CCCCC1): 360 nm | absorption maximum (in CC#N): 359 nm | absorption maximum (in CO): 359 nm | absorption maximum (in ClC(Cl)Cl): 362 nm

CN1/C(=C/C=C(/C=C/c2sc3ccccc3[n+]2C)c2cccc(C(F)(F)F)c2)Sc2ccccc21
absorption maximum (in CCO): 645 nm | absorption maximum (in CO): 642 nm | absorption maximum (in CS(C)=O): 653 nm | absorption maximum (in O): 639 nm

Cc1cccc2nc(-c3cc(=O)c(OCc4ccccc4)co3)c(NC3CCCCC3)n12
absorption maximum (in ClCCl): 352 nm

CCCCCCCCn1c2cc(/C=C/c3ccc(N(c4ccccc4)c4ccccc4)cc3)ccc2c2cc3c(cc21)c1ccc(/C=C/c2ccc(N(c4ccccc4)c4ccccc4)cc2)cc1n3CCCCCCCC
absorption maximum (in Cc1ccccc1): 416 nm

CSc1nccc(/C=C/c2ccc(N(c3ccccc3)c3ccc(/C=C/c4ccnc(SC)n4)cc3)cc2)n1
absorption maximum (in ClCCl): 430 nm

O=C1c2ccc3c4ccc5c6c(ccc(c7ccc(c2c37)C(=O)N1c1ccc(Cl)cc1)c64)C(=O)N(c1ccc(Cl)cc1)C5=O
absorption maximum (in CN(C)C=O): 525 nm

CCOC(=O)c1c(-c2cc3ccccc3oc2=O)nn(-c2ccc(Br)cc2)c1C(=O)OCC
absorption maximum (in ClCCl): 323 nm

CCn1c2cc(-c3ccc(-c4cccs4)s3)ccc2c2ccc(-c3ccc(-c4cccs4)s3)cc21
absorption maximum (in ClCCl): 399 nm

CCN(CC)c1ccc2c(-c3ccc(S(=O)(=O)[O-])cc3S(=O)(=O)[O-])c3ccc(=[N+](CC)CC)cc-3oc2c1
absorption maximum (in CC#N): 548 nm | absorption maximum (in CCO): 552 nm | absorption maximum (in CN(C)C=O): 552 nm | absorption maximum (in O): 562 nm

N#Cc1c(-n2c3ccccc3c3cc(Br)ccc32)c(-n2c3ccccc3c3cc(Br)ccc32)c(C#N)c(-n2c3ccccc3c3cc(Br)ccc32)c1-n1c2ccccc2c2cc(Br)ccc21
absorption maximum (in Cc1ccccc1): 337 nm

COc1cccc2cc(C#N)c(=N)oc12
absorption maximum (in ClCCl): 364 nm

O=C1C=C(Nc2ccccc2)CCC1
absorption maximum (in C1CCCCC1): 295 nm | absorption maximum (in C1CCOC1): 302 nm | absorption maximum (in C1COCCO1): 302 nm | absorption maximum (in CC1CCCCC1): 295 nm | absorption maximum (in CC#N): 307 nm | absorption maximum (in CC(C)O): 307 nm | absorption maximum (in CCO): 307 nm | absorption maximum (in CCOC(C)=O): 301 nm | absorption maximum (in CCOCC): 296 nm | absorption maximum (in CN(C)C=O): 306 nm | absorption maximum (in CO): 305 nm | absorption maximum (in CS(C)=O): 307 nm | absorption maximum (in ClC(Cl)(Cl)Cl): 299 nm | absorption maximum (in ClC(Cl)Cl): 303 nm | absorption maximum (in O): 306 nm

CCn1c2ccccc2c2cc(-c3cc(-c4ccc5c(c4)c4ccccc4n5CC)nc(C#N)n3)ccc21
absorption maximum (in C1CCOC1): 381 nm | absorption maximum (in CCOC(C)=O): 378 nm | absorption maximum (in CN(C)C=O): 387 nm | absorption maximum (in Cc1ccccc1): 380 nm | absorption maximum (in ClCCl): 381 nm

O=Cc1ccc2nc(C#Cc3ccc(N(c4ccc(C#Cc5nc6ccc(C=O)cc6s5)cc4)c4ccc(C#Cc5nc6ccc(C=O)cc6s5)cc4)cc3)sc2c1
absorption maximum (in Cc1ccccc1): 421 nm

CC(C)(C)c1cc(C#Cc2ccc3c(C#Cc4cc(C(C)(C)C)cc(C(C)(C)C)c4)cc4c5cc(C#Cc6cc(C(C)(C)C)cc(C(C)(C)C)c6)ccc5c(C#Cc5cc(C(C)(C)C)cc(C(C)(C)C)c5)cc4c3c2)cc(C(C)(C)C)c1
absorption maximum (in ClCCl): 416 nm

CN(C)c1ccc(-c2cc3c(ccc4c([N+](=O)[O-])cccc43)c(=O)o2)cc1
absorption maximum (in CCOC(C)=O): 435 nm | absorption maximum (in CO): 439 nm

COc1ccc(/C=C/C(=O)c2ccccc2O)cc1OC
absorption maximum (in C1CCOC1): 350 nm | absorption maximum (in C1COCCO1): 354 nm | absorption maximum (in CC#N): 352 nm | absorption maximum (in CCCO): 360 nm | absorption maximum (in CCO): 359 nm | absorption maximum (in CN(C)C=O): 362 nm | absorption maximum (in CO): 357 nm | absorption maximum (in CS(C)=O): 365 nm | absorption maximum (in ClC(Cl)Cl): 355 nm | absorption maximum (in ClCCl): 353 nm
